Results on 23 compounds are retold here after US20240018122A1, “PYRIDAZINYL AMINO DERIVATIVES AS ALK5 INHIBITORS” (CHIESI FARMACEUTICI S.P.A., priority 2020, published 2024).

Broadly, the IC50 is the point on the concentration scale where inhibition reaches its midpoint.

In the first test the target is human ALK5 (Homo sapiens (Human), UniProt P36897). Description: ADP-GLO Kinases assay, inhibitory activity on ALK5.
human ALK5, sequence (P36897 80-503 limits assumed): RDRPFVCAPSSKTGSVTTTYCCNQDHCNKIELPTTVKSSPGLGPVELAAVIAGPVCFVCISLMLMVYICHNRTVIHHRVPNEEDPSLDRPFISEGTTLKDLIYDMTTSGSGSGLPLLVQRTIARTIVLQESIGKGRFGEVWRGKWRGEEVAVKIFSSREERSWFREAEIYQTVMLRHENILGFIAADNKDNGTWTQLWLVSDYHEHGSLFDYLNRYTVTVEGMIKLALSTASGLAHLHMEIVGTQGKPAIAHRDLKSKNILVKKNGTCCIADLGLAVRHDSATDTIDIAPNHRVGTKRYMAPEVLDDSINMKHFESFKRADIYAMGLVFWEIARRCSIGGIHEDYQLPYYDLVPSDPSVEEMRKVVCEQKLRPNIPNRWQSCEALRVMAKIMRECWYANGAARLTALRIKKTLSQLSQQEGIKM
Conditions: not given
The format is biochemical. The procedure: The enzymatic activity of compounds of the present invention was monitored measuring the formation of ADP using the ADP-GLO Kinases assay. Following the incubation of the purified enzyme, a substrate and ATP, the produced ADP was converted into ATP, which in turn was converted into light by Ultra-Glo Luciferase. The luminescent signal positively correlated with ADP amount and kinase activity. […] The assay was performed in 384-well format and was validated using a selection of reference compounds that was tested in 11 point concentration-response curve.
A general note: ADP-Glo first removes unused ATP, then detects ADP through luciferase.
In the case of `CN1CCN(CCN(C)C(=O)Oc2ccc3c(Nc4cnnc(-c5cc(Cl)ccc5F)c4)ccnc3c2)CC1` [Example 45, 4-{[6-(5-Chloro-2-Fluorophenyl)Pyridazin-4-Yl]Amino}Quinolin-7-Yl N-Methyl-N-[2-(4-Methylpiperazin-1-Yl)Ethyl]Carbamate], the IC50 lay in the range of 1 to 5 nM.
In the case of `CN1CCC(CCN(C)C(=O)Oc2ccc3c(Nc4cnnc(-c5cc(Cl)ccc5F)c4)ccnc3c2)CC1` [Example 51, 4-{[6-(5-Chloro-2-Fluorophenyl)Pyridazin-4-Yl]Amino}Quinolin-7-Yl N-Methyl-N-[2-(1-Methylpiperidin-4-Yl)Ethyl]Carbamate], the IC50 lay in the range of 1 to 5 nM.
On the same count and under the same terms, to `CS(=O)(=O)CCN1CCN(C(=O)Oc2ccc3c(Nc4cnnc(-c5cc(Cl)ccc5F)c4)ccnc3c2)CC1` [Example 53, 4-{[6-(5-Chloro-2-Fluorophenyl)Pyridazin-4-Yl]Amino}Quinolin-7-Yl 4-(2-Methanesulfonylethyl)Piperazine-1-Carboxylate] belongs 1 to 5 nM; to `O=C(Oc1ccc2c(Nc3cnnc(-c4cc(Cl)ccc4F)c3)ccnc2c1)N1CCN(CCO)CC1` [Example 57, 4-{[6-(5-Chloro-2-Fluorophenyl)Pyridazin-4-Yl]Amino}Quinolin-7-Yl 4-(2-Hydroxyethyl)Piperazine-1-Carboxylate], 1 to 5 nM.

Staying with this test, now noted: purified recombinant human ALK5 2.6 nM, TGFβ1 peptide substrate, 25° C, 150 min incubation, ADP-Glo detection; read-out: ALK5 IC50.
As to `CS(=O)(=O)N1CCN(CCOc2ccc3c(Nc4cnnc(-c5cc(Cl)ccc5F)c4)ccnc3c2)CC1` [Example 36, N-[6-(5-Chloro-2-Fluorophenyl)Pyridazin-4-Yl]-7-[2-(4-Methanesulfonylpiperazin-1-Yl)Ethoxy]Quinolin-4-Amine], the IC50 is less than 1 nM.
With `CC(C)c1ccc(F)c(-c2cc(Nc3ccnc4cc(OCCN5CCN(C)CC5)ccc34)cnn2)c1` [Example 37, N-{6-[2-Fluoro-5-(Propan-2-Yl)Phenyl]Pyridazin-4-Yl}-7-[2-(4-Methylpiperazin-1-Yl)Ethoxy]Quinolin-4-Amine], the IC50 was less than 1 nM.
Regarding `CN1CCN(C(=O)c2cc3c(Nc4cnnc(-c5cc(Cl)ccc5F)c4)ccnc3[nH]2)CC1` [Example 38, 6-(5-Chloro-2-Fluorophenyl)-N-[2-(4-Methylpiperazine-1-Carbonyl)-1H-Pyrrolo[2,3-13]Pyridin-4-Yl]Pyridazin-4-Amine], the IC50 lay within 1 to 5 nM.
The same measure, in the same setting: to `CN1CCN(C(=O)COc2ccc3c(Nc4cnnc(-c5cc(Cl)ccc5F)c4)ccnc3c2)CC1` [Example 39, 2-[(4-{[6-(5-Chloro-2-Fluorophenyl)Pyridazin-4-Yl]Amino}Quinolin-7-Yl)Oxy]-1-(4-Methylpiperazin-1-Yl)Ethan-1-One] belongs 1 to 5 nM; to `Fc1ccc(Cl)cc1-c1cc(Nc2ccnc3cc(OCCN4CCN(CC(F)(F)F)CC4)ccc23)cnn1` [Example 41, N-[6-(5-Chloro-2-Fluorophenyl)Pyridazin-4-Yl]-7-{2-[4-(2,2,2-Trifluoroethyl)Piperazin-1-Yl]Ethoxy}Quinolin-4-Amine], less than 1 nM; to `CN(CCOc1ccc2c(Nc3cnnc(-c4cc(Cl)ccc4F)c3)ccnc2c1)C1COC1` [Example 42, N-[6-(5-Chloro-2-Fluorophenyl)Pyridazin-4-Yl]-7-{2-[Methyl(Oxetan-3-Yl)Amino]Ethoxy}Quinolin-4-Amine], less than 1 nM.
In the case of `CC(=O)N1CCCN(CCC(=O)Nc2cc(Nc3cnnc(-c4cc(Cl)ccc4F)c3)ccn2)C1` [Example 43, 3-(3-Acetyl-1,3-Diazinan-1-Yl)-N-(4-{[6-(5-Chloro-2-Fluorophenyl)Pyridazin-4-Yl]Amino}Pyridin-2-Yl)Propanamide], the IC50 lay in the range of 1 to 5 nM.
With `CS(=O)(=O)N1CCCN(CCC(=O)Nc2cc(Nc3cnnc(-c4cc(Cl)ccc4F)c3)ccn2)C1` [Example 44, N-(4-{[6-(5-Chloro-2-Fluorophenyl)Pyridazin-4-Yl]Amino}Pyridin-2-Yl)-3-(3-Methanesulfonyl-1,3-Diazinan-1-Yl)Propanamide], the concentration for half-maximal inhibition (IC50) is less than 1 nM.
For the compound `O=C(CCN1CCN(CC(F)(F)F)CC1)Nc1cc(Nc2cnnc(-c3cc(Cl)ccc3F)c2)ccn1` [Example 47, N-(4-{[6-(5-Chloro-2-Fluorophenyl)Pyridazin-4-Yl]Amino}Pyridin-2-Yl)-3-[4-(2,2,2-Trifluoroethyl)Piperazin-1-Yl]Propanamide], the IC50 was in the range of 1 to 5 nM.
The same measure, in the same setting: next, `Cc1nnc(-c2cc(Cl)ccc2F)cc1Nc1ccnc2cc(OCCN3CCN(C)CC3)ccc12` [Example 48, N-[6-(5-Chloro-2-Fluorophenyl)-3-Methylpyridazin-4-Yl]-7-[2-(4-Methylpiperazin-1-Yl)Ethoxy]Quinolin-4-Amine]: less than 1 nM; `Cc1nnc(-c2cc(Cl)ccc2F)cc1Nc1ccnc2[nH]c(C(=O)NCCN3CCN(C)CC3)cc12` [Example 49, 4-{[6-(5-Chloro-2-Fluorophenyl)-3-Methylpyridazin-4-Yl]Amino}-N-[2-(4-Methylpiperazin-1-Yl)Ethyl]-M-Pyrrolo[2,3-b]Pyridine-2-Carboxamide]: less than 1 nM.
For `Cc1nnc(-c2cc(Cl)ccc2F)cc1Nc1ccnc2[nH]c(C(=O)N(C)CCN3CCN(C)CC3)cc12` [Example 50, 4-{[6-(5-Chloro-2-Fluorophenyl)-3-Methylpyridazin-4-Yl]Amino}-N-Methyl-N-[2-(4-Methylpiperazin-1-Yl)Ethyl]-1H-Pyrrolo[2,3-b]Pyridine-2-Carboxamide], the IC50 was less than 1 nM.
Turning to `CN1CCCN(CCCOc2ccc3c(Nc4cnnc(-c5cc(Cl)ccc5F)c4)ccnc3c2)C1` [Example 52, N-[6-(5-Chloro-2-Fluorophenyl)Pyridazin-4-Yl]-7-[3-(3-Methyl-1,3-Diazinan-1-Yl)Propoxy]Quinolin-4-Amine], the IC50 is less than 1 nM.
Same read-out and setting: to `CN1CC[C@@H](OC(=O)c2ccc3c(Nc4cnnc(-c5cc(Cl)ccc5F)c4)ccnc3c2)C1` [Example 54, (3R)-1-Methylpyrrolidin-3-Yl 4-{[6-(5-Chloro-2-Fluorophenyl)Pyridazin-4-Yl]Amino}Quinoline-7-Carboxylate] belongs 1 to 5 nM.
Turning to `CN1C[C@@H]2CN(CCOc3ccc4c(Nc5cnnc(-c6cc(Cl)ccc6F)c5)ccnc4c3)C[C@@H]2C1` [Example 55, Cis N-[6-(5-Chloro-2-Fluorophenyl)Pyridazin-4-Yl]-7-(2-{5-Methyl-Octahydropyrrolo[3,4-c]Pyrrol-2-Yl}Ethoxy)Quinolin-4-Amine], the IC50 was less than 1 nM.
Still for that read-out and setting: next, `CC(=O)N1CCCN(CCOc2ccc3c(Nc4cnnc(-c5cc(Cl)ccc5F)c4)ccnc3c2)C1` [Example 56, 1-(3-{2-[(4-{[6-(5-Chloro-2-Fluorophenyl)Pyridazin-4-Yl]Amino}Quinolin-7-Yl)Oxy]Ethyl}-1,3-Diazinan-1-Yl)Ethan-1-One]: less than 1 nM; `CN1CC[C@H](OC(=O)c2ccc3c(Nc4cnnc(-c5cc(Cl)ccc5F)c4)ccnc3c2)C1` [Example 58, (3S)-1-Methylpyrrolidin-3-Yl 4-{[6-(5-Chloro-2-Fluorophenyl)Pyridazin-4-Yl]Amino}Quinoline-7-Carboxylate]: 1 to 5 nM; `O=C(CCN1CCCN(CC(F)(F)F)C1)Nc1cc(Nc2cnnc(-c3cc(Cl)ccc3F)c2)ccn1` [Example 59]: 1 to 5 nM.
The same measure, in the same setting: to `COC(=O)CCN1CCN(CCOc2ccc3c(Nc4cnnc(-c5cc(Cl)ccc5F)c4)ccnc3c2)CC1` [Example 60, Methyl 3-(4-{2-[(4-{[6-(5-Chloro-2-Fluorophenyl)Pyridazin-4-Yl]Amino}Quinolin-7-Yl)Oxy]Ethyl}Piperazin-1-Yl)Propanoate] belongs less than 1 nM.
